Test results reported in patent US20070289032A1, “AGROBACTERIUM TRANSFORMATION OF GUAR” (SAMUEL ROBERTS NOBEL FOUNDATION, priority 2006, published 2007).

Key:
Format in all cases: cell-based, Cyamopsis tetragonoloba
regenerated guar shoots = assay: Root induction from regenerated guar shoots; settings: regenerated guar shoots in rooting medium
Source text: Root induction from the regenerated shoots. Non-transgenic shoots (two weeks old) from the shoot elongation medium were subjected to two different rooting procedures. Five 10 mm long shoots were harvested from the shoot elongation medium (SEM), the basal region was cut in order to remove any callus or necrotic tissue and the shoot ends were dipped either in a lawn of Agrobacterium rhizogenes (strain ARqua1) and transferred to root induction medium 1 (Farhaeus medium (Dazzo and Hubbell, 1982) solidified with 0.9-1.0% Gelrite) or directly transferred to root induction medium 2 (½ MS salts, Gamborg's B5 vitamins, 2.5% sucrose, 0.5-2.00 mg/l indole 3-butyric acid (IBA), agar 0.8%, pH 5.8) without any Agrobacterium rhizogenes inoculum. To prepare the A. rhizogenes lawn, a single colony was inoculated in 2 ml liquid Farhaeus medium containing 250 mg/l streptomycin in a 10 ml culture tube and cultured for 2-3 days at 28° C. on a rotary shaker. When the O.D. (600 nm) reached 1.0, 50-120 μl of the suspension was spread on a solid Farhaeus plate containing 250 mg/l streptomycin and 0.3% Gelrite. Within 3 days the bacteria formed a lawn on the plate which was subsequently used for infecting the shoot bases. Roots developed within 4 weeks and the rooted plants were transferred to the soil and grown in a growth chamber at 30° C. and 12 hrs of light.
Study of root anatomy. […]

[1] = system: cotyledonary node explants of guar variety Lewis; assay: Multiple shoot regeneration from cotyledonary node explants on B5 medium with growth regulators (Lewis); settings: percentage of explants that formed shoots; B5 shoot initiation medium, hormone concentrations in μM
Experimental: (§1) Explant preparation. Guar seeds of two American cultivars (Lewis and Kinman; e.g. (Undersander et al., 1991) were surface sterilized in concentrated sulphuric acid for 10 min followed by four washes in ice cold sterile distilled water. Subsequently the seeds were treated with 10% commercial bleach (containing 6.0% free chlorine) for 5 min with a few drops of Tween 20 and washed thoroughly three to four times in sterile distilled water. The sterile seeds were sown in magenta boxes on MS medium (Murashige and Skoog, 1962) with 3% sucrose, 0.8% agar, pH 5.8, and germination was continued for 7-9 days under a 16 h/8 h day/night regime at 25° C. Three-four mm long cotyledonary node explants comprising the meristematic zone were excised from the seedlings and used for shoot regeneration and transformation.
(§2) Shoot regeneration. Shoot regeneration was performed in two different phases; shoot initiation and shoot elongation. For shoot initiation, […] cotyledonary node explants were cultured with the adaxial surface touching the medium in Petri plates (FIG. 1A). The explants were cultured on Gamborg's B5 medium (Gamborg et al., 1968), supplemented with 3% (w/v) sucrose, 0.8% Phyto agar (Caisson Laboratories Inc.), pH 5.8 (shoot initiation medium, SIM) with different combinations of growth regulators (Table 1). […]

[2] = system: cotyledonary node explants of guar variety Kinman; assay: Multiple shoot regeneration from cotyledonary node explants on B5 medium with growth regulators (Kinman); settings: percentage of explants that formed shoots; B5 shoot initiation medium, hormone concentrations in μM
Experimental: as §1, §2

Row | Structure (SMILES) | shoots that formed callus at the base (regenerated guar shoots) | Shoot morphogenesis frequency (%) in the genotype Lewis [1] | Shoot morphogenesis frequency (%) in the genotype Kinman [2]
1 | O=C(O)CCCc1c[nH]c2ccccc12 [IBA, indole 3-butyric acid] | more than 90% |  | 
2 | O=C(Nc1ccccc1)Nc1cnns1 [TDZ 9.10, Thidiazuron] |  | 31.67% | 33.33%
3 | c1ccc(CNc2ncnc3nc[nH]c23)cc1 [BAP 4.44, 6-benzylaminopurine] |  | 25.89% | 26.49%
